# Assays:
# Type in all cases: biochemical
# HDAC3 = target: T1, HDAC3 (Homo sapiens, UniProt O15379); test: HDAC Inhibition Screening Assay (FLUOR DE LYS Fluorimetric Drug Discovery Kit), HDAC3; conditions: for inhibition at 2 µM: 2 μM compound; for inhibition at 10 µM: 10 μM compound; for inhibition at 50 µM: 50 μM compound
# T1 construct: purchased Enzo Life Sciences
# Procedure: (§1) The HDAC1/HDAC2/HDAC3 in vitro activities are detected by Enzo Life Sciences' HDAC1/HDAC2/HDAC3 Fluorimetric Drug Discovery Kit. The assay is based on the FLUOR DE LYS® Substrate and FLUOR DE LYS® Developer combination. The assay procedure has two steps. First, the FLUOR DE LYS® Substrate, which comprises an acetylated lysine side chain, is incubated with HDAC1/HDAC2/HDAC3, respectively. Deacetylation of the substrate sensitizes the substrate so that, in the second step, treatment with the FLUOR DE LYS® Developer produces a fluorophore. The signals of the test compounds (Compounds 1˜83; at concentrations of 2 μM, 10 μM and 50 μM) in 96-well plates are detected at 360 nm or 485 nm excitation and 460 nm or 530 nm emission with a Molecular Devices SpectraMax i3 Imaging Cytometer. The HDAC1/HDAC2/HDAC3 activities are expressed in percentage of basal control minus baseline control.
# HDAC2 = target: T2, HDAC2 (Homo sapiens, UniProt Q92769); test: HDAC Inhibition Screening Assay (FLUOR DE LYS Fluorimetric Drug Discovery Kit), HDAC2; conditions: for inhibition at 2 µM: 2 μM compound; for inhibition at 10 µM: 10 μM compound; for inhibition at 50 µM: 50 μM compound
# T2 construct: purchased Enzo Life Sciences
# Procedure: as §1
# ATX (autotaxin) = target: T3, ATX (autotaxin) (Homo sapiens, UniProt Q13822); test: Autotaxin Inhibition Screening Assay (choline release from LPC, LPC-CR); conditions: for inhibition at 4 µM: 4 μM compound; for inhibition at 20 µM: 20 μM compound; for inhibition at 50 µM: 50 μM compound
# T3 construct: purchased Cayman 10803
# Procedure: ATX (autotaxin) activity was measured by choline release from LPC in presence or absence of test compounds (Compounds 1˜83; at concentrations of 4 μM, 20 μM and 50 μM). Twenty (20) ng ATX (10803, Cayman, MI, USA) was incubated with 100 μM 14:0 LPC (855575P, Avanti, AL, USA) in a final volume of 100 μL buffer containing 50 mM Tris pH 8.0, 0.01% Triton X-100, 50 mM CaCl2, 1 unit/ml choline oxidase, 2 unit/ml horseradish peroxidase (HRP), 2 mM homovanilic acid (HVA). The relative amount of released choline was measured by HVA fluorescence in a 96-well plate. Fluorescent intensity was determined at λex/λem=320/450 nm every 60 sec for 90 min with a SpectraMax i3 (Molecular Devices, CA, USA). Data analysis was performed using GraphPad Prism (GraphPad, La Jolla CA, USA). Inhibition %=[1−(SlopeTA−SlopeBlank)/(SlopeVehicle−SlopeBlank)]×100% HDAC Inhibition Screening Assay
# HDAC1 = target: T4, HDAC1 (Homo sapiens, UniProt Q13547); test: HDAC Inhibition Screening Assay (FLUOR DE LYS Fluorimetric Drug Discovery Kit), HDAC1; conditions: for inhibition at 2 µM: 2 μM compound; for inhibition at 10 µM: 10 μM compound; for inhibition at 50 µM: 50 μM compound
# T4 construct: purchased Enzo Life Sciences
# Procedure: as §1
# T4 sequence (Q13547 whole entry): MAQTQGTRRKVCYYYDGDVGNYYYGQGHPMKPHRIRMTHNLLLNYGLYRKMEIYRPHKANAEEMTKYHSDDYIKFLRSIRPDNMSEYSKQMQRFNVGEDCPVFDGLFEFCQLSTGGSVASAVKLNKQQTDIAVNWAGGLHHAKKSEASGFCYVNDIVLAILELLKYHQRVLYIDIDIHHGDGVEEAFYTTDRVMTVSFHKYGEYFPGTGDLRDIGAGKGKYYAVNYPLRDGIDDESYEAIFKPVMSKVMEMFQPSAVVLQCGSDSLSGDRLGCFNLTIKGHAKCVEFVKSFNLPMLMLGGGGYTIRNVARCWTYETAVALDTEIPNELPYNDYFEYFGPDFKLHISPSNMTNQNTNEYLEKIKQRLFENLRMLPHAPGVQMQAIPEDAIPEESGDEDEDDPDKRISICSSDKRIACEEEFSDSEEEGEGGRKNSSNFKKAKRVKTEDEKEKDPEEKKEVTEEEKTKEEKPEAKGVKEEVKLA
# T2 sequence (Q92769 whole entry): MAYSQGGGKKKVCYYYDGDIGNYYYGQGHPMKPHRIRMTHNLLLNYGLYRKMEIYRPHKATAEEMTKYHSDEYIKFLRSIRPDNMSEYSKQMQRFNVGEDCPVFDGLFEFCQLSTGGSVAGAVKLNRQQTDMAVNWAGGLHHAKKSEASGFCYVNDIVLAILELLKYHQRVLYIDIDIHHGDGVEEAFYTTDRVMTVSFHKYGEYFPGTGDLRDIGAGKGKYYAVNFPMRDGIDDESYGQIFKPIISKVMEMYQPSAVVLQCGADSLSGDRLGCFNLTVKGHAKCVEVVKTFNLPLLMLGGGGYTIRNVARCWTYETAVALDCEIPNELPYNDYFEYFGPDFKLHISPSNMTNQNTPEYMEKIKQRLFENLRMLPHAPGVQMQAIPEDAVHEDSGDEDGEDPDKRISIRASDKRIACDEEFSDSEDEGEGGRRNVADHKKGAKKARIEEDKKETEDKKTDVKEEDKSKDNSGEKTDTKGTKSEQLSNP
# T1 sequence (O15379 whole entry): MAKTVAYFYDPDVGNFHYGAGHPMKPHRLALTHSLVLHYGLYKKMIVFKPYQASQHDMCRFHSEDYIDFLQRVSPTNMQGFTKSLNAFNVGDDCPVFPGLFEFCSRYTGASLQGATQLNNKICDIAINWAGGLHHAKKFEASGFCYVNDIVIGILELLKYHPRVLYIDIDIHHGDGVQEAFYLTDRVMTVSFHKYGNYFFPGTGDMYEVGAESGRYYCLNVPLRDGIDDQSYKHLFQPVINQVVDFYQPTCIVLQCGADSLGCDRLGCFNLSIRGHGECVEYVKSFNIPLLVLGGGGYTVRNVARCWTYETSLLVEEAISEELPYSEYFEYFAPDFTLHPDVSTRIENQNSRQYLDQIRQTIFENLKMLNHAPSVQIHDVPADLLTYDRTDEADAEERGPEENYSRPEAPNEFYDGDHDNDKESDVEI
# T1 sequence (O75376 395-489 partner limits assumed): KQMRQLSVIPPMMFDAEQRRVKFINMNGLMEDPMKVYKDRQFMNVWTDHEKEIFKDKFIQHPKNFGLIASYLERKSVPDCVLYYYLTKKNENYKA
SMILES,inhibition at 2 µM (HDAC3) [%],inhibition at 10 µM (HDAC3) [%],inhibition at 50 µM (HDAC3) [%],inhibition at 2 µM (HDAC2) [%],inhibition at 10 µM (HDAC2) [%],inhibition at 50 µM (HDAC2) [%],inhibition at 4 µM (ATX (autotaxin)) [%],inhibition at 20 µM (ATX (autotaxin)) [%],inhibition at 50 µM (ATX (autotaxin)) [%],inhibition at 2 µM (HDAC1) [%],inhibition at 10 µM (HDAC1) [%],inhibition at 50 µM (HDAC1) [%]
"O=C(/C=C/c1ccc2c(c1)CCC2NCc1cc(C(F)(F)F)cc(C(F)(F)F)c1)NO (stereo not drawn) [Compound 33, (E)-3-(1-((3,5-bis(trifluoromethyl)benzyl)amino)-2,3-dihydro-1H-inden-5-yl)-N-hydroxyacrylamide]",50 to 80,> 80,> 80,50 to 80,> 80,> 80,< 50,< 50,< 50,50 to 80,> 80,> 80
"CCN(CC)c1ccc(C(=O)NC2CCc3cc(/C=C/C(=O)NCCCCCC(=O)Nc4ccc(F)cc4N)ccc32)cc1 (stereo not drawn) [Compound 29, (E)-N-(5-(3-((6-((2-amino-4-fluorophenyl)amino)-6-oxohexyl)amino)-3-oxoprop-1-en-1-yl)-2,3-dihydro-1H-inden-1-yl)-4-(diethylamino)benzamide]",< 50,< 50,< 50,< 50,< 50,50 to 80,< 50,< 50,< 50,< 50,< 50,< 50
"COc1ccc2c(c1)CCCC2NC(=O)CCCCCCC(=O)Nc1ccc(F)cc1N (stereo not drawn) [Compound 47, N1-(2-amino-4-fluorophenyl)-N8-(6-methoxy-1,2,3,4-tetrahydronaphthalen-1-yl)octanediamide]",50 to 80,50 to 80,> 80,< 50,50 to 80,50 to 80,< 50,< 50,< 50,< 50,< 50,< 50
CCN(CC)c1ccc(C(=O)NC2CCc3cc(/C=C/C(=O)Nc4ccc(F)cc4N)ccc32)cc1 (stereo not drawn) [Compound 27],< 50,< 50,< 50,< 50,< 50,< 50,< 50,< 50,< 50,< 50,< 50,< 50
"O=C(/C=C/c1ccc2c(c1)CCC2NCCc1c[nH]c2ccccc12)NO (stereo not drawn) [Compound 58, (E)-3-(1-((2-(1H-indol-3-yl)ethyl)amino)-2,3-dihydro-1H-inden-5-yl)-N-hydroxyacrylamide]",> 80,> 80,> 80,> 80,> 80,> 80,< 50,< 50,50 to 80,> 80,> 80,> 80
"Nc1cc(F)ccc1NC(=O)c1ccc(COc2ccc3c(c2)CC(Cc2cc(C(F)(F)F)cc(C(F)(F)F)c2)C3=O)cc1 (stereo not drawn) [Compound 76, N-(2-amino-4-fluorophenyl)-4-(((2-(3,5-bis(trifluoromethyl)benzyl)-1-oxo-2,3-dihydro-1H-inden-5-yl)oxy)methyl)benzamide]",< 50,< 50,< 50,< 50,< 50,< 50,< 50,< 50,< 50,< 50,< 50,< 50

# Results, then the compound that gave them:
inhibition at 2 µM (HDAC3) [%],inhibition at 10 µM (HDAC3) [%],inhibition at 50 µM (HDAC3) [%],inhibition at 2 µM (HDAC2) [%],inhibition at 10 µM (HDAC2) [%],inhibition at 50 µM (HDAC2) [%],inhibition at 4 µM (ATX (autotaxin)) [%],inhibition at 20 µM (ATX (autotaxin)) [%],inhibition at 50 µM (ATX (autotaxin)) [%],inhibition at 2 µM (HDAC1) [%],inhibition at 10 µM (HDAC1) [%],inhibition at 50 µM (HDAC1) [%],SMILES
< 50,< 50,< 50,< 50,< 50,< 50,< 50,< 50,< 50,< 50,< 50,< 50,"Nc1cc(F)ccc1NC(=O)c1ccc(COc2ccc3c(c2)CCC(Cc2cc(C(F)(F)F)cc(C(F)(F)F)c2)C3=O)cc1 (stereo not drawn) [Compound 67, N-(2-amino-4-fluorophenyl)-4-(((6-(3,5-bis(trifluoromethyl)benzyl)-5-oxo-5,6,7,8-tetrahydronaphthalen-2-yl)oxy)methyl)benzamide]"
< 50,< 50,< 50,< 50,< 50,< 50,> 80,> 80,> 80,< 50,< 50,< 50,"Nc1cc(F)ccc1NC(=O)CCCCCC(=O)Nc1ccc2c(c1)CC/C(=C\c1cc(C(F)(F)F)cc(C(F)(F)F)c1)C2=O [Compound 11, (E)-N1-(2-amino-4-fluorophenyl)-N7-(6-(3,5-bis(trifluoromethyl)benzylidene)-5-oxo-5,6,7,8-tetrahydronaphthalen-2-yl)heptanediamide]"
< 50,> 80,> 80,50 to 80,> 80,> 80,> 80,> 80,> 80,< 50,> 80,> 80,"O=C(CCCCCNC(=O)COc1ccc2c(c1)CC/C(=C\c1cc(C(F)(F)F)cc(C(F)(F)F)c1)C2=O)NO [Compound 74, (E)-6-(2-((6-(3,5-bis(trifluoromethyl)benzylidene)-5-oxo-5,6,7,8-tetra-hydronaphthalen-2-yl)oxy)acetamido)-N-hydroxyhexanamide]"
< 50,50 to 80,> 80,50 to 80,> 80,> 80,> 80,> 80,> 80,50 to 80,> 80,> 80,O=C(CCCCCCC(=O)Nc1ccc2c(c1)CC/C(=C\c1cc(C(F)(F)F)cc(C(F)(F)F)c1)C2=O)NO [Compound 4]
< 50,< 50,50 to 80,< 50,< 50,50 to 80,< 50,50 to 80,50 to 80,< 50,< 50,50 to 80,"O=C(/C=C/c1ccc2c(c1)CC/C(=C\c1cc(C(F)(F)F)cc(C(F)(F)F)c1)C2=O)NO [Compound 7, (E)-3-(6-((E)-3,5-bis(trifluoromethyl)benzylidene)-5-oxo-5,6,7,8-tetrahydronaphthalen-2-yl)-N-hydroxyacrylamide]"
< 50,< 50,50 to 80,< 50,< 50,< 50,< 50,< 50,< 50,< 50,< 50,< 50,"Nc1cc(F)ccc1NC(=O)/C=C/c1ccc2c(c1)CCCC2OCc1cc(C(F)(F)F)cc(C(F)(F)F)c1 (stereo not drawn) [Compound 35, (E)-N-(2-amino-4-fluorophenyl)-3-(5-((3,5-bis(trifluoromethyl)benzyl)oxy)-5,6,7,8-tetrahydronaphthalen-2-yl)acrylamide]"
< 50,< 50,< 50,< 50,< 50,< 50,< 50,< 50,< 50,< 50,< 50,< 50,"Nc1cc(F)ccc1NC(=O)/C=C/c1ccc2c(c1)CCC2NC(=O)c1cc(C(F)(F)F)cc(C(F)(F)F)c1 (stereo not drawn) [Compound 21, (E)-N-(5-(3-((2-amino-4-fluorophenyl)amino)-3-oxoprop-1-en-1-yl)-2,3-dihydro-1H-inden-1-yl)-3,5-bis(trifluoromethyl)benzamide]"

# Reference: patent US12162820B2 (TAIWANJ PHARMACEUTICALS CO., LTD., priority 2019, dated 2024)
